Structures can show the parent of a compound that is named as a salt.
Assays:
NHE3 = target: T1, NHE3 (Homo sapiens, UniProt P48764); assay: Recovery of intracellular pH (pHi) after acidification, BCECF fluorescence, NHE3; format: cell-based; details: inhibition of pH recovery after intracellular acidification; rate recorded for three minutes; BCECF-loaded cells
T1 sequence (P48764 1-834): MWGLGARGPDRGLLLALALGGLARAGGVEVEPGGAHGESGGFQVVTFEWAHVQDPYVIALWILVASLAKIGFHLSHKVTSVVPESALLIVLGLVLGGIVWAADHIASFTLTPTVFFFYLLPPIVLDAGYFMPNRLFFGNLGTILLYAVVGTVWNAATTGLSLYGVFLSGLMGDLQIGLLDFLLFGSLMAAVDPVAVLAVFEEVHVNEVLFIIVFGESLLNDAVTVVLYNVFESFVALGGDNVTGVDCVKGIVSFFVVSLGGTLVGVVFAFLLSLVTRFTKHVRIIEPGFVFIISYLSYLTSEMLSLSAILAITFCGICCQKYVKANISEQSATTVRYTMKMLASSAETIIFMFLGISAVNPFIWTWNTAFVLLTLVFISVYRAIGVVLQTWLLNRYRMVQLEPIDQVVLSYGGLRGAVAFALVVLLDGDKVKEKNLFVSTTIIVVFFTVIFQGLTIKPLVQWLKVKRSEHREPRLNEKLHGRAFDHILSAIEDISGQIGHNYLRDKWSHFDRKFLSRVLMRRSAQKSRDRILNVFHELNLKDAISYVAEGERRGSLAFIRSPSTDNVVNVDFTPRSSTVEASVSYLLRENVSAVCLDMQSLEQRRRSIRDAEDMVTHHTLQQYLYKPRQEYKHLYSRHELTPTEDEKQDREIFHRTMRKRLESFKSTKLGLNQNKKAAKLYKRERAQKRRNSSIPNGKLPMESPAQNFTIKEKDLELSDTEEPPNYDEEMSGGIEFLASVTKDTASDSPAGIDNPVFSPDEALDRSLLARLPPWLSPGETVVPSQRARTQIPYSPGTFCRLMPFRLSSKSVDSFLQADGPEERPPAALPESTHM
Experimental: In this test, the recovery in the intracellular pH (pHi) after an acidification is ascertained, which is initiated if the NHE is capable of functioning, even under bicarbonate-free conditions. For this purpose, the pHi was determined using the pH-sensitive fluorescent dye BCECF (Calbiochem, the precursor BCECF-AM is employed).
The cells were initially loaded with BCECF. The BCECF fluorescence was determined in a “Ratio Fluorescence Spectrometer” (Photon Technology International, South Brunswick, N.J., USA) at excitation wavelengths of 505 and 440 nm and an emission wavelength of 535 nm and converted into the pHi using calibration curves. The cells were incubated in NH4Cl buffer (pH 7.4) (NH4Cl buffer: 115 mM NaCl, 20 mM NH4Cl, 5 mM KCl, 1 mM CaCl2, 1 mM MgSO4, 20 mM Hepes, 5 mM glucose, 1 mg/ml BSA; a pH of 7.4 is adjusted with 1 M NaOH) even during the BCECF loading. The intracellular acidification was induced by adding 975 μl of an NH4Cl-free buffer (see below) to 25 μl aliquots of the cells incubated in NH4Cl buffer. The subsequent rate of pH recovery was recorded for two minutes with NHE1, five minutes with NHE2 and three minutes with NHE3. To calculate the inhibitory potency of the tested substances, the cells were initially investigated in buffers with which a complete or absolutely no pH recovery took place. For complete pH recovery (100%), the cells were incubated in Na^+-containing buffer (133.8 mM NaCl, 4.7 mM KCl, 1.25 mM CaCl2, 1.25 mM MgCl2, 0.97 mM Na2HPO4, 0.23 mM NaH2PO4, 5 mM Hepes, 5 mM glucose, a pH of 7.0 is adjusted with 1 M NaOH). To determine the 0% value, the cells were incubated in an Na^+-free buffer (133.8 mM choline chloride, 4.7 mM KCl, 1.25 mM CaCl2, 1.25 mM MgCl2, 0.97 mM K2HPO4, 0.23 mM KH2PO4, 5 mM Hepes, 5 mM glucose, a pH of 7.0 is adjusted with 1 M NaOH). The substances to be tested were made up in the Na^+-containing buffer. The recovery of the intracellular pH at each test concentration of a substance was expressed as a percentage of the maximum recovery. The IC50 value for the particular substance for the individual NHE subtypes was calculated from the pH recovery percentages using the Sigma-Plot program.

SMILES | IC50 (NHE3) [µM] | melting point
CC(=O)Nc1ccc(C2CN(C)Cc3c(C)cc(C)cc32)cc1 (stereo not shown) [Example 23, N-[4-(2,6,8-Trimethyl-1,2,3,4-tetrahydro-isoquinolin-4-yl)-phenyl]-acetamide] | 1.51 | –
CN1Cc2c(Cl)cc(Cl)cc2C(c2ccc(N3CCOCC3)cc2)C1 (stereo not shown) [Example 10, 6,8-Dichloro-2-methyl-4-(4-morpholin-4-yl-phenyl)-1,2,3,4-tetrahydroisoquinoline, Trifluoroacetate] | 1 | –
CN1Cc2c(Cl)cc(Cl)cc2C(c2ccc(S(N)(=O)=O)cc2)C1 (single isomer, unassigned; (+)) [Example 2a, (+)-4-(6,8-Dichloro-2-methyl-1,2,3,4-tetrahydro-isoquinolin-4-yl)-benzene-sulfonamide hydrochloride] | 0.082 | –
CN1Cc2c(Cl)cc(Cl)cc2C(c2ccccc2N)C1 (stereo not shown) [Example 36, 2-(6,8-Dichloro-2-methyl-1,2,3,4-tetrahydro-isoquinolin-4-yl)-phenylamine] | 0.274 | –
CCNC(=O)c1ccc(C2CN(C)Cc3c(Cl)cc(Cl)cc32)cc1 (stereo not shown) [Example 7, 4-(6,8-Dichloro-2-methyl-1,2,3,4-tetrahydroisoquinolin-4-yl)-N-ethyl-benzamide, Trifluoroacetate] | 0.25 | –
CC(=O)Nc1ccc(C2CN(C)Cc3c(Cl)cc(Br)cc32)cc1 (stereo not shown) [Example 24, N-[4-(6-Bromo-8-chloro-2-methyl-1,2,3,4-tetrahydro-isoquinolin-4-yl)-phenyl]-acetamide] | 0.34 | –
CC(=O)Nc1ccc(C2CN(C)Cc3c(Cl)cc(Cl)cc32)cc1.Cl (stereo not shown) [Example 1a, N-[4-(6,8-Dichloro-2-methyl-1,2,3,4-tetrahydro-isoquinolin-4-yl)-phenyl]-acetamide-hydrochloride] | 0.075 | 125 °C (dec.)
COC(=O)Nc1cccc(C2CN(C)Cc3c(Cl)cc(Cl)cc32)c1 (stereo not shown) [Example 207, [3-(6,8-Dichloro-2-methyl-1,2,3,4-tetrahydro-isoquinolin-4-yl)-phenyl]-carbamic acid methyl Ester—Hydrochloride Salt] | 0.186 | –
CC(=O)Nc1ccc(C2CN(C)Cc3c(Cl)cc(Cl)cc32)cc1 (stereo not shown) | – | 205 to 206 °C
CN1Cc2c(Cl)cc(Cl)cc2C(c2ccc(O)c(C(=O)O)c2)C1 (stereo not shown) [Example 29, 5-(6,8-Dichloro-2-methyl-1,2,3,4-tetrahydro-isoquinolin-4-yl)-2-hydroxy-benzoic acid] | 0.318 | –
CN1Cc2c(Cl)cc(Cl)cc2C(c2ccc(Cl)c(S(N)(=O)=O)c2)C1 (stereo not shown) [Example 99] | – | 122 °C
CN1Cc2c(Cl)cc(Cl)cc2C(c2cccc(S(N)(=O)=O)c2)C1 (single isomer, unassigned; (+)) [Example 2b, (+)-3-(6,8-Dichloro-2-methyl-1,2,3,4-tetrahydro-isoquinolin-4-yl)-benzene-sulfonamide hydrochloride] | 0.026 | –
CCNC(=O)Nc1ccc(C2CN(C)Cc3c(Cl)cc(Cl)cc32)cc1 (stereo not shown) [Example 21, 1-[4-(6,8-Dichloro-2-methyl-1,2,3,4-tetrahydro-isoquinolin-4-yl)-phenyl]-3-ethylurea] | 0.814 | 218 to 220 °C
CN1Cc2c(Cl)cc(Cl)cc2C(c2ccc(C(=O)O)cc2)C1 (stereo not shown) [Example 6, 4-(6,8-Dichloro-2-methyl-1,2,3,4-tetrahydro-isoquinolin-4-yl)-benzoic acid] | 0.67 | –
CN1Cc2c(Cl)cc(Cl)cc2C(c2ccc(N)cc2)C1 (stereo not shown) [Example 17, 4-(6,8-Dichloro-2-methyl-1,2,3,4-tetrahydro-isoquinolin-4-yl)-phenylamine, Hydrochloride] | 0.049 | –

Further lines, with some results ahead:

IC50 (NHE3) [µM] | SMILES | melting point
0.349 | CN1Cc2c(Cl)cc(Cl)cc2C(c2ccc(NS(C)(=O)=O)cc2)C1 (stereo not shown) [Example 48] | –
0.597 | CN1Cc2c(Cl)cc(Cl)cc2C(c2ccc(NC(=O)N3CCOCC3)cc2)C1 (stereo not shown) [Example 183] | –
0.024 | CN1Cc2c(Cl)cc(Cl)cc2C(c2cccc(NC(=O)c3cn[nH]c3)c2)C1 (stereo not shown) [Example 146] | –
0.695 | CN1Cc2c(Cl)cc(Cl)cc2C(c2cccc(NC(=O)C3CCN(S(C)(=O)=O)CC3)c2)C1 (stereo not shown) [Example 144] | –
0.279 | CN(C)CC(=O)Nc1ccc(C2CN(C)Cc3c(Cl)cc(Cl)cc32)cc1 (stereo not shown) [Example 113] | –
0.602 | CN1Cc2c(Cl)cc(Cl)cc2C(c2cccc(NC(=O)N3CCCCC3)c2)C1 (stereo not shown) [Example 153] | –
0.215 | CCC(=O)Nc1cccc(C2CN(C)Cc3c(Cl)cc(Cl)cc32)c1 (stereo not shown) [Example 51] | –
0.507 | CN1Cc2c(Cl)cc(Cl)cc2C(c2cccc(NS(=O)(=O)N(C)C)c2)C1 (stereo not shown) [Example 64] | –
0.252 | CNC(=O)N(C)c1cccc(C2CN(C)Cc3c(Cl)cc(Cl)cc32)c1 (single isomer, unassigned; (+)) [Example 199] | –
0.682 | CN1Cc2c(Cl)cc(Cl)cc2C(c2ccc(NC(=O)c3cc[nH]c3)cc2)C1 (stereo not shown) [Example 119] | –
0.418 | CN1Cc2c(Cl)cc(Cl)cc2C(c2ccc(NS(=O)(=O)C(F)(F)F)cc2)C1 (stereo not shown) [Example 87] | –
0.73 | CNC(=S)Nc1ccccc1C1CN(C)Cc2c(Cl)cc(Cl)cc21 (stereo not shown) [Example 81, 1-[2-(6,8-Dichloro-2-methyl-1,2,3,4-tetrahydro-isoquinolin-4-yl)-phenyl]-3-methyl-thiourea, Trifluoroacetate] | –
0.202 | CC(=O)N1CCC(C(=O)Nc2cccc(C3CN(C)Cc4c(Cl)cc(Cl)cc43)c2)CC1 (stereo not shown) [Example 60] | –
0.308 | Cc1nc(S(=O)(=O)Nc2cccc(C3CN(C)Cc4c(Cl)cc(Cl)cc43)c2)cn1C (stereo not shown) [Example 97] | –
